{"source": "paper PMC11079024", "about": "“Identification of a family of species-selective complex I inhibitors as potential anthelmintics” (Nature Communications, 2024)", "key": {"[1]": {"target": "B. taurus (heart) complex I (Bos taurus, UniProt P03887+P17694+P42026)", "sequence (P03887 whole entry)": "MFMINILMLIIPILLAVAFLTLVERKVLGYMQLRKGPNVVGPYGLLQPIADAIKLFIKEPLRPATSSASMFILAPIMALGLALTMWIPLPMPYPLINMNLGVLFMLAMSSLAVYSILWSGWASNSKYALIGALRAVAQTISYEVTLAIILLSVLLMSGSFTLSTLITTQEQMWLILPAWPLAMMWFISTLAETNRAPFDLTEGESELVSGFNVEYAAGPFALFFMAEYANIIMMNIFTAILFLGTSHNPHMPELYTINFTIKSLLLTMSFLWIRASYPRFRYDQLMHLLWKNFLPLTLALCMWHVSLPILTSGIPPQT", "sequence (P17694 34-463)": "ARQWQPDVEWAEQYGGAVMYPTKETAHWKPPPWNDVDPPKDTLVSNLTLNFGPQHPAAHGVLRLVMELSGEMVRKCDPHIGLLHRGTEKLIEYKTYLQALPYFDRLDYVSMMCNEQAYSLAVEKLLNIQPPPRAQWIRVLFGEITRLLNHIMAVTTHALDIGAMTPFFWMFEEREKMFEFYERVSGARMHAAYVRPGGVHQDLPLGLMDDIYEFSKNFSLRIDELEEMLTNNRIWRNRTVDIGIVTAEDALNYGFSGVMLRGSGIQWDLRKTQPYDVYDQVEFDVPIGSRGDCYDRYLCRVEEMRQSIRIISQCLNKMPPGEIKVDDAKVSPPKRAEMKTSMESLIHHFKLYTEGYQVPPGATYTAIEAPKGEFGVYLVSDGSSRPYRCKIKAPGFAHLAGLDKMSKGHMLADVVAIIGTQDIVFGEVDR", "sequence (P42026 38-216)": "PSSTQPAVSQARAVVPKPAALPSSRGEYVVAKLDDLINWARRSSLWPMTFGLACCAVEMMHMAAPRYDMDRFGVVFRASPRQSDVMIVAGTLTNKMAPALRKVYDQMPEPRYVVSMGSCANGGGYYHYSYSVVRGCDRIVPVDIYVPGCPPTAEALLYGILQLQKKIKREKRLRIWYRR", "assay": "biochemical", "format": "biochemical", "method_in_brief": "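Complex I activity followed as DCIP reduction (600 nm, 30 s reads, 15 min) with 80 μM NADH and 60 μM decylubiquinone in 25 mM KPi pH 7.5 containing 2 μM antimycin A and 2 mM KCN. Freeze-thawed mouse or bovine heart mitochondria at 0.2 mg/mL; initial-rate percent of solvent control, single-point 100 μM or dose-response.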"}, "[2]": {"target": "C. elegans (N2) complex I (NADH:ubiquinone oxidoreductase) (Caenorhabditis elegans, UniProt P24887+Q93873+Q94360)", "sequence (Q94360 17-199)": "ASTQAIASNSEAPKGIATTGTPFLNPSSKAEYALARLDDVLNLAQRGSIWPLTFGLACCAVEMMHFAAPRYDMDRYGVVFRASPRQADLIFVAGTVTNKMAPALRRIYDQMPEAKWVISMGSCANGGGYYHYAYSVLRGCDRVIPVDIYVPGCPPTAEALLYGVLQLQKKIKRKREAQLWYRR", "sequence (P24887 whole entry)": "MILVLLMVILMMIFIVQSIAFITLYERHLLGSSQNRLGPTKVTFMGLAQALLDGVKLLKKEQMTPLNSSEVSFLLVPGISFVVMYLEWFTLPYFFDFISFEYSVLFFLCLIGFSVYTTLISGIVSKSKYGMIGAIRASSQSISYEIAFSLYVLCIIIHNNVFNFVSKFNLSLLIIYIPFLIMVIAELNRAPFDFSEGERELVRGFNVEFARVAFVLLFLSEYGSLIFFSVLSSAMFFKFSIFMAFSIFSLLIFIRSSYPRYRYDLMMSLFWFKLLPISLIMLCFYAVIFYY", "sequence (Q93873 31-482)": "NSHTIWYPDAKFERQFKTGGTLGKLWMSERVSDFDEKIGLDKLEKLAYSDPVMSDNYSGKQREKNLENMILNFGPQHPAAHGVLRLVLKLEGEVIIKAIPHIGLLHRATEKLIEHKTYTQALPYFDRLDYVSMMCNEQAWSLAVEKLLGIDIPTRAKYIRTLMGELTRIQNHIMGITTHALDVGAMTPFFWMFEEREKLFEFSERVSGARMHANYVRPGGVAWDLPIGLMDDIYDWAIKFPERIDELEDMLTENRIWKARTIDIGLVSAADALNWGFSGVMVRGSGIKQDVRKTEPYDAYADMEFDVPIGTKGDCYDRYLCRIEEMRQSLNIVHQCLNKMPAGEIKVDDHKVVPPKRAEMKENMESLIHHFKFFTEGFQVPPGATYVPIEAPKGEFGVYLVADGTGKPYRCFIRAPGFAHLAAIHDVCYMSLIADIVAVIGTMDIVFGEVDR", "assay": "biochemical", "format": "biochemical", "details": "wild-type C. elegans mitochondria, read-out: percent (%) in vitro complex I activity relative to solvent control", "method_in_brief": "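Mitochondria, 0.2 mg/mL protein, freeze-thawed three times, assayed in 25 mM KPi pH 7.5 with BSA, 80 μM NADH, 60 μM decylubiquinone, 160 μM DCIP, antimycin A and KCN. Rate from initial linear slope of A600 over 15 min. % of solvent control.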"}}, "note": "Several values for one entry are separate records, joined by “and”; a condition that tells them apart may be missing. Equal values may be shown once. Read-outs that look alike come from different tables or passages of the source."}
{"smiles": "COc1cc2c(cc1OC)C(C(C)c1ccc(CC(C)C)cc1)=NCC2", "note": "(centres unmarked) [NPD10504]", "values": [{"measurement": "activity at 0.0001 µM", "setting": "[1]; B. taurus, dose 0.0001 µM, Mean of replicates, read-out: Complex I activity, dose-response data", "result": 107, "unit": "%"}, {"measurement": "Complex I activity, dose-response data", "setting": "[1]; B. taurus, dose 0.0001 µM, individual replicates (Rep)", "result": "117.793 and 105.069 and 91.702 and 112.227"}, {"measurement": "activity at 0.0005 µM", "setting": "[1]; B. taurus, dose 0.0005 µM, Mean of replicates, read-out: Complex I activity, dose-response data", "result": 106, "unit": "%"}, {"measurement": "Complex I activity, dose-response data", "setting": "[1]; B. taurus, dose 0.0005 µM, individual replicates (Rep)", "result": "109.504 and 97.187 and 111.197"}, {"measurement": "activity at 0.0005 µM", "setting": "[1]; B. taurus, dose 0.0005 µM, individual replicates (Rep), read-out: Complex I activity, dose-response data", "result": 106, "unit": "%"}, {"measurement": "activity at 0.001 µM", "setting": "[1]; B. taurus, dose 0.001 µM, Mean of replicates, read-out: Complex I activity, dose-response data", "result": 99.9, "unit": "%"}, {"measurement": "Complex I activity, dose-response data", "setting": "[1]; B. taurus, dose 0.001 µM, individual replicates (Rep)", "result": "98.069 and 105.385 and 87.764 and 108.494"}, {"measurement": "activity at 0.0025 µM", "setting": "[1]; B. taurus, dose 0.0025 µM, Mean of replicates, read-out: Complex I activity, dose-response data", "result": 103, "unit": "%"}, {"measurement": "Complex I activity, dose-response data", "setting": "[1]; B. taurus, dose 0.0025 µM, individual replicates (Rep)", "result": "100.000 and 97.046 and 110.425"}, {"measurement": "activity at 0.0025 µM", "setting": "[1]; B. taurus, dose 0.0025 µM, individual replicates (Rep), read-out: Complex I activity, dose-response data", "result": 106, "unit": "%"}, {"measurement": "activity at 0.005 µM", "setting": "[1]; B. taurus, dose 0.005 µM, Mean of replicates, read-out: Complex I activity, dose-response data", "result": 95.2, "unit": "%"}, {"measurement": "Complex I activity, dose-response data", "setting": "[1]; B. taurus, dose 0.005 µM, individual replicates (Rep)", "result": "92.608 and 94.796 and 95.624"}, {"measurement": "activity at 0.005 µM", "setting": "[1]; B. taurus, dose 0.005 µM, individual replicates (Rep), read-out: Complex I activity, dose-response data", "result": 97.7, "unit": "%"}, {"measurement": "activity at 0.013 µM", "setting": "[1]; B. taurus, dose 0.013 µM, Mean of replicates, read-out: Complex I activity, dose-response data", "result": 101, "unit": "%"}, {"measurement": "Complex I activity, dose-response data", "setting": "[1]; B. taurus, dose 0.013 µM, individual replicates (Rep)", "result": "117.931 and 88.068 and 92.546 and 105.663"}, {"measurement": "activity at 0.025 µM", "setting": "[1]; B. taurus, dose 0.025 µM, Mean of replicates, read-out: Complex I activity, dose-response data", "result": 101, "unit": "%"}, {"measurement": "Complex I activity, dose-response data", "setting": "[1]; B. taurus, dose 0.025 µM, individual replicates (Rep)", "result": "94.298 and 94.233 and 109.524"}, {"measurement": "activity at 0.025 µM", "setting": "[1]; B. taurus, dose 0.025 µM, individual replicates (Rep), read-out: Complex I activity, dose-response data", "result": 107, "unit": "%"}, {"measurement": "activity at 0.063 µM", "setting": "[1]; B. taurus, dose 0.063 µM, Mean of replicates, read-out: Complex I activity, dose-response data", "result": 90.7, "unit": "%"}, {"measurement": "Complex I activity, dose-response data", "setting": "[1]; B. taurus, dose 0.063 µM, individual replicates (Rep)", "result": "92.397 and 91.561 and 90.734"}, {"measurement": "activity at 0.063 µM", "setting": "[1]; B. taurus, dose 0.063 µM, individual replicates (Rep), read-out: Complex I activity, dose-response data", "result": 88, "unit": "%"}, {"measurement": "activity at 0.125 µM", "setting": "[1]; B. taurus, dose 0.125 µM, Mean of replicates, read-out: Complex I activity, dose-response data", "result": 83.6, "unit": "%"}, {"measurement": "Complex I activity, dose-response data", "setting": "[1]; B. taurus, dose 0.125 µM, individual replicates (Rep)", "result": "80.676 and 85.091 and 80.824"}, {"measurement": "activity at 0.125 µM", "setting": "[1]; B. taurus, dose 0.125 µM, individual replicates (Rep), read-out: Complex I activity, dose-response data", "result": 87.9, "unit": "%"}, {"measurement": "activity at 0.313 µM", "setting": "[1]; B. taurus, dose 0.313 µM, Mean of replicates, read-out: Complex I activity, dose-response data", "result": 98, "unit": "%"}, {"measurement": "Complex I activity, dose-response data", "setting": "[1]; B. taurus, dose 0.313 µM, individual replicates (Rep)", "result": "97.994 and 101.828 and 86.358"}, {"measurement": "activity at 0.313 µM", "setting": "[1]; B. taurus, dose 0.313 µM, individual replicates (Rep), read-out: Complex I activity, dose-response data", "result": 106, "unit": "%"}, {"measurement": "activity at 0.625 µM", "setting": "[1]; B. taurus, dose 0.625 µM, Mean of replicates, read-out: Complex I activity, dose-response data", "result": 101, "unit": "%"}, {"measurement": "Complex I activity, dose-response data", "setting": "[1]; B. taurus, dose 0.625 µM, individual replicates (Rep)", "result": "121.834 and 83.881 and 99.417 and 98.267"}, {"measurement": "activity at 1.5 µM", "setting": "[1]; B. taurus, dose 1.5 µM, Mean of replicates, read-out: Complex I activity, dose-response data", "result": 96.4, "unit": "%"}, {"measurement": "Complex I activity, dose-response data", "setting": "[1]; B. taurus, dose 1.5 µM, individual replicates (Rep)", "result": "115.721 and 89.117 and 89.942 and 90.667"}, {"measurement": "activity at 3 µM", "setting": "[1]; B. taurus, dose 3 µM, Mean of replicates, read-out: Complex I activity, dose-response data", "result": 85.9, "unit": "%"}, {"measurement": "Complex I activity, dose-response data", "setting": "[1]; B. taurus, dose 3 µM, individual replicates (Rep)", "result": "100.146 and 69.610 and 88.192 and 85.467"}, {"measurement": "activity at 15 µM", "setting": "[1]; B. taurus, dose 15 µM, Mean of replicates, read-out: Complex I activity, dose-response data", "result": 36.5, "unit": "%"}, {"measurement": "Complex I activity, dose-response data", "setting": "[1]; B. taurus, dose 15 µM, individual replicates (Rep)", "result": "38.809 and 32.507 and 35.200"}, {"measurement": "activity at 15 µM", "setting": "[1]; B. taurus, dose 15 µM, individual replicates (Rep), read-out: Complex I activity, dose-response data", "result": 39.3, "unit": "%"}, {"measurement": "activity at 37.5 µM", "setting": "[1]; B. taurus, dose 37.5 µM, Mean of replicates, read-out: Complex I activity, dose-response data", "result": 5.69, "unit": "%"}, {"measurement": "Complex I activity, dose-response data", "setting": "[1]; B. taurus, dose 37.5 µM, individual replicates (Rep)", "result": "3.348 and 10.986 and 0.292 and 8.133"}, {"measurement": "activity at 75 µM", "setting": "[1]; B. taurus, dose 75 µM, Mean of replicates, read-out: Complex I activity, dose-response data", "result": 3.63, "unit": "%"}, {"measurement": "Complex I activity, dose-response data", "setting": "[1]; B. taurus, dose 75 µM, individual replicates (Rep)", "result": "0.000 and 11.602 and 2.933"}, {"measurement": "IC50", "setting": "[1]; heart mitochondria, read-out: B. taurus Complex I IC50", "result": 11.3, "unit": "µM"}, {"measurement": "remaining activity at 0.125 µM", "setting": "[2]; mean of replicates", "result": 92.7, "unit": "%"}, {"measurement": "remaining activity at 0.125 µM", "setting": "[2]; single replicate", "result": 88.8, "unit": "%"}, {"measurement": "remaining activity at 0.313 µM", "setting": "[2]; mean of replicates", "result": 91.5, "unit": "%"}, {"measurement": "remaining activity at 0.313 µM", "setting": "[2]; single replicate", "result": 88.6, "unit": "%"}, {"measurement": "remaining activity at 0.625 µM", "setting": "[2]; mean of replicates", "result": 100, "unit": "%"}, {"measurement": "remaining activity at 0.625 µM", "setting": "[2]; single replicate", "result": 100, "unit": "%"}, {"measurement": "remaining activity at 1.5 µM", "setting": "[2]; mean of replicates", "result": 78.6, "unit": "%"}, {"measurement": "remaining activity at 1.5 µM", "setting": "[2]; single replicate", "result": 76.6, "unit": "%"}, {"measurement": "remaining activity at 3 µM", "setting": "[2]; 3 µM, mean of replicates", "result": 58.9, "unit": "%"}]}
